Here are results for three molecules from ChEMBL document CHEMBL5029153, “Structural Insights into Notum Covalent Inhibition” (J Med Chem, 2021).

Series [1] deals with T1, Palmitoleoyl-protein carboxylesterase NOTUM (Homo sapiens, UniProt Q6P988).
T1 sequence (Q6P988 whole entry): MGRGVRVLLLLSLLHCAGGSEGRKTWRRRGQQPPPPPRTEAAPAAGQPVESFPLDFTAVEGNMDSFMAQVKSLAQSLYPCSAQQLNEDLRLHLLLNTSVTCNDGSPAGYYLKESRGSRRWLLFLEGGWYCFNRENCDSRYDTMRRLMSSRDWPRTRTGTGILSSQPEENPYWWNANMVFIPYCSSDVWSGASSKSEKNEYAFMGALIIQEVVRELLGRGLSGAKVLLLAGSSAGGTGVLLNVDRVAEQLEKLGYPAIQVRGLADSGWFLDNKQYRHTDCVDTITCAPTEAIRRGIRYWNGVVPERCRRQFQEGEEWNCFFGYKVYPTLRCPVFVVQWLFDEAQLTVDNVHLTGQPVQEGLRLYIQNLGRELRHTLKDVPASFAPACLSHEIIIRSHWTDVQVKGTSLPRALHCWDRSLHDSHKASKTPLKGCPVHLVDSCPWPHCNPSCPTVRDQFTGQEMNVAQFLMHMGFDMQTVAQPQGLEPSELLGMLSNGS
Description: Binding affinity to glycosylated Notum 1 (unknown origin) assessed as change in melting temperature at 30 uM by SYPRO orange dye based thermal shift assay.

The target of series [2] is T1, Palmitoleoyl-protein carboxylesterase NOTUM. Description: Binding affinity to glycosylated Notum 1 (unknown origin) assessed as maximum change in melting temperature at 1 mM by SYPRO orange dye based thermal shift assay. Conditions: 1000 µM.
The target is the same in series [3]. The experiment in a line: Inhibition of Notum 1 (unknown origin) expressed in HEK293 cells harbouring TCF/LEF luciferase reporter gene assessed as modulation of Wnt/beta-catenin signalling pathway preincubated with recombinant Wnt-3A for 1 hr followed by addition to reporter cell plate incubated overnight by luminescence based microplate reader analysis.
Series [4] has the same target. Description: Binding affinity to glycosylated Notum 1 (unknown origin) assessed as change in melting temperature at 8 uM by SYPRO orange dye based thermal shift assay.

In the case of `O=C(O)CCC(=O)N1CCc2ccccc21`, the deltaTm is 1 °C in series [1] and 2.5 °C in series [2].

Regarding `O=C(CCC(=O)N1CCc2ccccc21)OCC(F)F`, the EC50 in series [3] was 300 nM.

Consider `COC(=O)CCC(=O)N1CCc2ccccc21`, for which the deltaTm is 5 °C in series [1], 2 °C in series [4] and 10 °C in series [2].

One may read the EC50 as the concentration at which the effect is half-maximal.
